Results taken from ChEMBL document CHEMBL3044928, “Synthesis of 2,4-dihalogenofluorobenzenes and their antimicrobial and antifungal activity studies” (2007).
In brackets after ≈: the same amount, converted by molar mass. Activity calls are given as the source filed them. The rule behind the calls is not given here.

Tests used:
Assay type in all cases: functional
[1] = test system: Escherichia coli; assay: Antibacterial activity against Escherichia coli ATCC 27853 at 10 U/disk after 24 hr by disk diffusion method
[2] = test system: Micrococcus flavus; assay: Antibacterial activity against Micrococcus flavus clinical isolate at 30 ug/disk after 24 hr by disk diffusion method; conditions: read-out: DIZ
[3] = test system: Candida albicans; assay: Antifungal activity against Candida albicans clinical isolate at 50 ug/disk after 48 hr by disk diffusion method; conditions: read-out: DIZ
[4] = test system: Micrococcus flavus; assay: Antibacterial activity against Micrococcus flavus clinical isolate at 5 mg/ml after 24 hr by disk diffusion method; conditions: read-out: DIZ
[5] = test system: Morganella morganii; assay: Antibacterial activity against Morganella morganii clinical isolate at 5 mg/ml after 24 hr by disk diffusion method; conditions: for zone of inhibition at 5000 µg/mL: read-out: DIZ
[6] = test system: Escherichia coli; assay: Antibacterial activity against Escherichia coli ATCC 27853 at 5 mg/ml after 24 hr by disk diffusion method; conditions: for zone of inhibition at 5000 µg/mL: read-out: DIZ
[7] = test system: Candida albicans; assay: Antifungal activity against Candida albicans clinical isolate by NCCLS broth microdilution method
[8] = test system: Bacillus cereus; assay: Antibacterial activity against Bacillus cereus ATCC 6633 by NCCLS broth microdilution method
[9] = test system: Staphylococcus aureus; assay: Antibacterial activity against Staphylococcus aureus ATCC 25923 by NCCLS broth microdilution method
[10] = test system: Bacillus cereus; assay: Ratio of compound to oxacillin activity against Bacillus cereus ATCC 6633
[11] = test system: Candida albicans; assay: Ratio of compound to ketoconazole activity against Candida albicans
[12] = test system: Micrococcus flavus; assay: Ratio of compound to tetracycline activity against Micrococcus flavus clinical isolate
[13] = test system: Candida albicans; assay: Antifungal activity against Candida albicans clinical isolate at 5 mg/ml after 48 hr by disk diffusion method; conditions: read-out: DIZ
[14] = test system: Bacillus cereus; assay: Antibacterial activity against Bacillus cereus ATCC 6633 at 5 mg/ml after 24 hr by disk diffusion method; conditions: ATCC 6633, 24 h, read-out: DIZ
[15] = test system: Staphylococcus aureus; assay: Antibacterial activity against Staphylococcus aureus ATCC 25923 at 5 mg/ml after 24 hr by disk diffusion method; conditions: for zone of inhibition at 5000 µg/mL: ATCC 25923, 24 h, read-out: DIZ
[16] = test system: Micrococcus flavus; assay: Antibacterial activity against Micrococcus flavus clinical isolate by NCCLS broth microdilution method
[17] = test system: Morganella morganii; assay: Antibacterial activity against Morganella morganii clinical isolate by NCCLS broth microdilution method
[18] = test system: Escherichia coli; assay: Antibacterial activity against Escherichia coli ATCC 27853 by NCCLS broth microdilution method
[19] = test system: Bacillus cereus; assay: Antibacterial activity against Bacillus cereus ATCC 6633 at 1 ug/disk after 24 hr by disk diffusion method; conditions: ATCC 6633, 24 h, read-out: DIZ
[20] = test system: Staphylococcus aureus; assay: Antibacterial activity against Staphylococcus aureus ATCC 25923 at 10 ug/disc after 24 hr by disk diffusion method; conditions: ATCC 25923, 24 h, read-out: DIZ
[21] = test system: Morganella morganii; assay: Antibacterial activity against Morganella morganii clinical isolate at 30 ug/disk after 24 hr by disk diffusion method; conditions: read-out: DIZ

Row | Compound | zone of inhibition at 5000 µg/mL [4] | MIC [7] | MIC [8] | MIC [9] | zone of inhibition at 5000 µg/mL [13] | zone of inhibition at 5000 µg/mL [14] | MIC [16] | MIC [17] | MIC [18] | zone of inhibition at 5000 µg/mL [6] | zone of inhibition at 5000 µg/mL [15] | other results
1 | CC1(C)S[C@@H]2[C@H](NC(=O)Cc3ccccc3)C(=O)N2[C@H]1C(=O)O [PENICILLIN G] | – | – | – | – | – | – | – | – | – | – | – | diameter of the inhibition zone (DIZ) [1]: 19 mm
2 | CN(C)[C@@H]1C(O)=C(C(N)=O)C(=O)[C@@]2(O)C(O)=C3C(=O)c4c(O)cccc4[C@@](C)(O)[C@H]3C[C@@H]12 [TETRACYCLINE] | – | – | – | – | – | – | – | – | – | – | – | zone of inhibition at 30 µg/disc [2]: 20 mm
3 | CC(=O)N1CCN(c2ccc(OCC3COC(Cn4ccnc4)(c4ccc(Cl)cc4Cl)O3)cc2)CC1 (stereo unspecified) [KETOCONAZOLE] | – | – | – | – | – | – | – | – | – | – | – | zone of inhibition at 50 µg/disc [3]: 16 mm
4 | Fc1ccc(Cl)cc1Br | 32 mm | 2500 µg/mL (≈ 11.9 mM) | 2500 µg/mL (≈ 11.9 mM) | 2500 µg/mL (≈ 11.9 mM) | 30 mm | 15 mm | 2500 µg/mL (≈ 11.9 mM) | 2500 µg/mL (≈ 11.9 mM) | 2500 µg/mL (≈ 11.9 mM) | – | – | diameter of the inhibition zone (DIZ) [5]: inactive; diameter of the inhibition zone (DIZ) [6]: inactive; Ratio [10]: 2; Ratio [11]: 2; Ratio [12]: 2; diameter of the inhibition zone (DIZ) [15]: inactive
5 | Cc1onc(-c2ccccc2)c1C(=O)N[C@@H]1C(=O)N2[C@@H]1SC(C)(C)[C@@H]2C(=O)O [OXACILLIN] | – | – | – | – | – | – | – | – | – | – | – | zone of inhibition at 1 µg/disc [19]: 9 mm
6 | Fc1cc(Cl)ccc1Cl [2,5-DICHLOROFLUOROBENZENE] | 14 mm | 2000 µg/mL (≈ 12.1 mM) | 2000 µg/mL (≈ 12.1 mM) | 2500 µg/mL (≈ 15.2 mM) | 17 mm | 16 mm | 2500 µg/mL (≈ 15.2 mM) | 2500 µg/mL (≈ 15.2 mM) | 3000 µg/mL (≈ 18.2 mM) | 11 mm | 15 mm | zone of inhibition at 5000 µg/mL [5]: 12 mm
7 | CC1(C)S[C@@H]2[C@H](NC(=O)[C@H](N)c3ccccc3)C(=O)N2[C@H]1C(=O)O [AMPICILLIN] | – | – | – | – | – | – | – | – | – | – | – | zone of inhibition at 10 µg/disc [20]: 9 mm
8 | Fc1ccc(Cl)cc1I | 20 mm | 2500 µg/mL (≈ 9.75 mM) | 2000 µg/mL (≈ 7.8 mM) | 2000 µg/mL (≈ 7.8 mM) | 14 mm | 16 mm | 1500 µg/mL (≈ 5.85 mM) | 1500 µg/mL (≈ 5.85 mM) | 3000 µg/mL (≈ 11.7 mM) | 10 mm | 13 mm | zone of inhibition at 5000 µg/mL [5]: 10 mm
9 | Fc1ccc(Cl)cc1Cl [2,4-DICHLOROFLUOROBENZENE] | 11 mm | 1 µg/mL (≈ 0.00606 mM) | 1500 µg/mL (≈ 9.09 mM) | 1200 µg/mL (≈ 7.27 mM) | 12 mm | 19 mm | 1500 µg/mL (≈ 9.09 mM) | 1500 µg/mL (≈ 9.09 mM) | 1200 µg/mL (≈ 7.27 mM) | 12 mm | 15 mm | diameter of the inhibition zone (DIZ) [5]: inactive
10 | Fc1cc(Cl)ccc1I | 11 mm | 2500 µg/mL (≈ 9.75 mM) | 2000 µg/mL (≈ 7.8 mM) | 2500 µg/mL (≈ 9.75 mM) | 14 mm | 13 mm | 2500 µg/mL (≈ 9.75 mM) | 2500 µg/mL (≈ 9.75 mM) | 2500 µg/mL (≈ 9.75 mM) | 11 mm | 12 mm | zone of inhibition at 5000 µg/mL [5]: 13 mm
11 | Fc1cc(Cl)ccc1Br | 13 mm | 2500 µg/mL (≈ 11.9 mM) | 2000 µg/mL (≈ 9.55 mM) | 2500 µg/mL (≈ 11.9 mM) | 11 mm | 17 mm | 2500 µg/mL (≈ 11.9 mM) | 2500 µg/mL (≈ 11.9 mM) | 3000 µg/mL (≈ 14.3 mM) | 13 mm | 14 mm | diameter of the inhibition zone (DIZ) [5]: inactive
12 | O=C(N[C@H](CO)[C@H](O)c1ccc([N+](=O)[O-])cc1)C(Cl)Cl [CHLORAMPHENICOL] | – | – | – | – | – | – | – | – | – | – | – | zone of inhibition at 30 µg/disc [21]: 15 mm
